# In article PMC4065339, “Characterization of Family D DNA polymerase from Thermococcus sp. 9°N” (Extremophiles, 2014):
# Legend:
# [1] = test system: T1, polD (heterodimer of polD-S and polD-L); test: [α-32P]-dCTP incorporation into primed M13mp18, acid precipitation; assay type: biochemical, Thermococcus sp. 9°N; conditions: 10 nM enzyme, 15 nM primed M13mp18, 50 µM dNTPs, ThermoPol buffer pH 8.8 (2 mM MgSO4), 65 °C, 20 min; read-out: not inhibited by up to 0.4 mM
# T1 construct: gene polC; E. coli T7 Express/pRIL, untagged, co-expressed plasmids pERE1 and pERF5, co-purified heterodimer; with DNA polymerase II small subunit
# [2] = target: T2, polB (9°Nm DNA polymerase; 9°N/E143D) (Thermococcus sp. 9oN-7, UniProt Q56366, E143D); test: as above; assay type: biochemical
# T2 construct: gene pol; commercial recombinant 9°Nm DNA polymerase (New England Biolabs), E143D variant in exonuclease domain; single subunit
# T2 sequence (Q56366 1-775 E143D): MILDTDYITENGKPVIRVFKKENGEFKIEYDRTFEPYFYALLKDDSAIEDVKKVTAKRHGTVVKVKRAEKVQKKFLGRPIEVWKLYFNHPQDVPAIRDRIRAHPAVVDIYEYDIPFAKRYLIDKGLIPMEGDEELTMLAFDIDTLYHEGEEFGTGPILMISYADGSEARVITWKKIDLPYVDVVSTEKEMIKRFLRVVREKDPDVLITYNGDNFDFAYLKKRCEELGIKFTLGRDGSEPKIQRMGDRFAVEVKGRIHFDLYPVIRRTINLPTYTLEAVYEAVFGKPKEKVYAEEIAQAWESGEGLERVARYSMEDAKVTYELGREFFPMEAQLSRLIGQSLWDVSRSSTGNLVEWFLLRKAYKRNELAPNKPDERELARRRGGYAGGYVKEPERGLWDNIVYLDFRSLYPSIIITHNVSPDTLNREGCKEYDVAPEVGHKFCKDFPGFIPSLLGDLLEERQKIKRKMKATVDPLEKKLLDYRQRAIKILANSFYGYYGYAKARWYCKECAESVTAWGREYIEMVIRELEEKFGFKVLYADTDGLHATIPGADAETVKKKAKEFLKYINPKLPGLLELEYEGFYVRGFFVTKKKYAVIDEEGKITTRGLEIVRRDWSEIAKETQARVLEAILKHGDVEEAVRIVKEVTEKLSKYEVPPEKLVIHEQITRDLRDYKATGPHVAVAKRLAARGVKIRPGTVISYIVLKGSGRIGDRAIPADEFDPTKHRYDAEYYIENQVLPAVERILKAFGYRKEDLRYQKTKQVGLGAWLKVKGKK
smiles,measurement,setting,value
C[C@@]1(CO)[C@H](O)CC[C@@]2(C)[C@H]1CC[C@H]1C[C@@H]3C[C@@]12CC[C@]3(O)CO [aphidicolin],IC50,[1],> 400 µM
same,IC50,[2],300 µM
